From PubChem BioAssay (NCI)
“And” between values parts separate entries of the source, which are not always exact repeats. Equal entries are not always repeated.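 Five compound concentrations were applied to cells in 96-well plates for 48 hours; endpoints were derived by simple linear interpolation of the resulting dose-response curve. At the GI50, growth is halved. The concentration for full growth arrest is given as TGI.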

Legend:
Experiment in all cases: NCI-60 cell line screen, 48 h
OVCAR-3 ovarian = tested on: OVCAR-3 ovarian
OVCAR-5 ovarian = tested on: OVCAR-5 ovarian
SK-OV-3 ovarian = tested on: SK-OV-3 ovarian
K-562 leukemia = tested on: K-562 leukemia
A549 NSCLC = tested on: A549 NSCLC
HCC-2998 colon = tested on: HCC-2998 colon
DU-145 prostate = tested on: DU-145 prostate
SK-MEL-28 melanoma = tested on: SK-MEL-28 melanoma
CAKI-1 renal = tested on: CAKI-1 renal
HL-60(TB) leukemia = tested on: HL-60(TB) leukemia

SMILES	GI50 (OVCAR-3 ovarian)	TGI (OVCAR-3 ovarian)	GI50 (OVCAR-5 ovarian)	TGI (OVCAR-5 ovarian)	GI50 (SK-OV-3 ovarian)	TGI (SK-OV-3 ovarian)	GI50 (K-562 leukemia)	TGI (K-562 leukemia)	GI50 (A549 NSCLC)	TGI (A549 NSCLC)	GI50 (HCC-2998 colon)	TGI (HCC-2998 colon)	GI50 (DU-145 prostate)	TGI (DU-145 prostate)	GI50 (SK-MEL-28 melanoma)	TGI (SK-MEL-28 melanoma)	GI50 (CAKI-1 renal)	TGI (CAKI-1 renal)	GI50 (HL-60(TB) leukemia)	TGI (HL-60(TB) leukemia)
CCC(=O)Nc1nnc(Cc2ccc(OC)c(OC)c2)s1	> 100 µM	> 100 µM	> 100 µM	> 100 µM	> 100 µM	> 100 µM	> 100 µM	> 100 µM	> 100 µM	> 100 µM	> 100 µM	> 100 µM	> 100 µM	> 100 µM	> 100 µM	> 100 µM	> 100 µM	> 100 µM	> 100 µM	> 100 µM
Cn1c(I)c(C#C[Si](C)(C)C)c(=O)[nH]c1=O	1.9 µM	3.39 µM	14.7 µM	30.8 µM	17.2 µM	30.9 µM	1.68 µM	4.08 µM	21.5 µM	38.1 µM	2.32 µM	4.59 µM	4.11 µM	15.1 µM	1.66 µM	3.12 µM	2.76 µM	9.58 µM	1.9 µM	4.42 µM
Oc1[nH]c2ccccc2c1C=Nc1ccc(-n2cncn2)cc1	> 20.9 µM	> 25 µM	> 25 µM	> 25 µM	> 15.7 µM	> 25 µM	13.6 µM	> 25 µM	> 18.5 µM	> 25 µM	> 25 µM	> 25 µM	> 22.5 µM	> 25 µM	> 25 µM	> 25 µM	> 22.7 µM	> 25 µM	12.9 µM	> 25 µM
N#Cc1c(N)nc(N2CCOCC2)c(C#N)c1-c1c(Cl)cccc1Cl	2.4 µM	6.37 µM	6.27 µM	35.3 µM	4.09 µM	21 µM	3.3 µM	11.7 µM	10.3 µM	95.6 µM	0.0181 µM	2.48 µM	16.9 µM	> 100 µM	7.38 µM	56 µM	2.24 µM	12.2 µM	4.75 µM	20.9 µM
C(=N\Nc1ccc2ccccc2n1)/c1ccccn1	0.351 µM	–	0.596 µM	> 100 µM	0.537 µM	> 40.5 µM	0.487 µM	> 39.1 µM	0.563 µM	> 100 µM	0.307 µM	1.14 µM	0.374 µM	> 37.7 µM	1.96 µM	> 100 µM	0.257 µM	0.763 µM	0.279 µM	2.3 µM
CCN1C(=O)N(CC)C2C1N=C(SC)N2/N=C/C=C/c1ccccc1OC (stereo not drawn)	0.375 µM	> 54.2 µM	0.63 µM	> 54.4 µM	0.743 µM	> 59.5 µM	0.361 µM	> 42.8 µM	0.469 µM	> 47.8 µM	0.413 µM	> 41.1 µM	0.428 µM	> 45.3 µM	> 32.1 µM	> 50.3 µM	0.572 µM	> 58.3 µM	0.289 µM	1.09 µM
COc1cnccc1Nc1nc(-c2nn(Cc3c(F)cc(OCCO)cc3F)c3ccccc23)ncc1OC	3.05 µM	8.51 µM	5.13 µM	24.5 µM	19.4 µM	48 µM	0.645 µM	> 100 µM	2.93 µM	10.3 µM	10 µM	> 100 µM	3.11 µM	11.5 µM	2.47 µM	9.66 µM	11.9 µM	29.5 µM	1.42 µM	> 100 µM
S=C(SSC(=S)N1CCCCC1)N1CCCCC1	11.3 µM	24.2 µM	14.6 µM	27.9 µM	48.4 µM	> 100 µM	22.5 µM	> 100 µM	24.1 µM	> 100 µM	28.9 µM	> 100 µM	15.5 µM	> 100 µM	18.9 µM	69.3 µM	18 µM	> 100 µM	12.4 µM	51.3 µM
C[C@]12CCC(=O)C[C@@H]1CC[C@@H]1[C@@H]2CC[C@]2(C)[C@@H](OC(=O)N(CCCl)N=O)CC[C@@H]12	3.53 µM	15.9 µM	6.31 µM	22.4 µM	1.41 µM	13.6 µM	2.69 µM	> 43.4 µM	0.353 µM	11.6 µM	0.933 µM	7.95 µM	0.405 µM	3.95 µM	6.43 µM	23 µM	0.591 µM	12 µM	0.259 µM	> 33 µM
O=C1/C(=C/c2ccc([N+](=O)[O-])o2)Oc2ccc(Cl)cc21	1.7 µM	3.19 µM	2.63 µM	7.5 µM	13 µM	47.2 µM	0.438 µM	2.17 µM	6.45 µM	59.1 µM	2.18 µM	4.56 µM	2.25 µM	4.88 µM	1.71 µM	3.38 µM	1.7 µM	3.61 µM	2.08 µM	18.3 µM
O=C1C=CC(=O)c2c1nc(CBr)[nH]c2=O	–	> 100 µM	–	> 100 µM	–	> 100 µM	–	> 100 µM	–	> 100 µM	–	> 100 µM	–	> 100 µM	–	> 100 µM	–	> 100 µM	–	55 µM
CNC(=O)c1cc(Oc2ccc(NC(=O)Nc3cc(C(C)(C)C)nn3-c3ccc4ncccc4c3)c(F)c2)ccn1	2.36 µM and 2.21 µM	7.96 µM and 6.35 µM	2.1 µM and 3.34 µM	–	1.59 µM and 2.34 µM	6.59 µM and 7.8 µM	0.0151 µM and 0.0275 µM	> 100 µM	1.83 µM and 1.8 µM	7.72 µM and 6.5 µM	3.21 µM and 3.38 µM	7.82 µM and 7.78 µM	2.1 µM and 1.8 µM	6.23 µM and 5.62 µM	0.264 µM and 0.297 µM	2.62 µM and 2.8 µM	0.523 µM and 0.699 µM	4.65 µM and 4.32 µM	3.33 µM and 2.53 µM	6.57 µM and 5.8 µM
COc1cc(C(=O)n2nc(N)c3c(C)cc(C)nc32)cc(OC)c1OC	> 88.9 µM	> 100 µM	> 100 µM	> 100 µM	> 82.4 µM	> 100 µM	0.488 µM	> 100 µM	41.5 µM	> 100 µM	> 100 µM	> 100 µM	> 100 µM	> 100 µM	> 100 µM	> 100 µM	> 100 µM	> 100 µM	4.49 µM	> 100 µM
CC1(C)C(=O)/C=C\C(=O)C(C)(C)C(=O)/C=C\C(=O)C(C)(C)C2=CC=C(O2)C(C)(C)C(=O)/C=C\C1=O	–	9.41 µM	–	37.1 µM	–	22.9 µM	–	> 46.9 µM	–	49.7 µM	–	24.1 µM	–	32.1 µM	–	10 µM	–	7.91 µM	–	2.24 µM
Cc1cc(N2CCOCC2)nc(NCc2cc(Nc3ccnc4cc(Cl)ccc34)ccc2F)n1	1.72 µM	3.16 µM	1.62 µM	3.16 µM	1.92 µM	3.48 µM	1.78 µM	4.49 µM	1.87 µM	3.6 µM	1.67 µM	3.26 µM	1.6 µM	3.08 µM	1.83 µM	3.4 µM	1.63 µM	3.14 µM	2.31 µM	4.82 µM
Cc1c(-c2ccccn2)ccc2ccccc12	–	> 100 µM	–	> 100 µM	–	> 100 µM	–	> 100 µM	–	> 100 µM	–	> 100 µM	–	> 100 µM	–	> 100 µM	–	> 100 µM	–	> 100 µM
CC(C)(C)[Si](C)(C)OC1[C@@H](COC(=O)NC(=O)CCl)O[C@@H](n2cnc3c(N)ncnc32)[C@H]1O[Si](C)(C)C(C)(C)C (stereo partly drawn)	2.66 µM	8.32 µM	3.11 µM	9.55 µM	2.92 µM	5.95 µM	1.36 µM	3.36 µM	4.94 µM	11.9 µM	5.44 µM	12.6 µM	5.75 µM	12 µM	7.12 µM	13.7 µM	4.25 µM	11.2 µM	4.52 µM	12.3 µM
